Biological target: MAGE-A11:PCF11 (Homo sapiens (Human), UniProt P43364)
Experiment: TR-FRET single point screening at 15 μM
Format: binding
Design: unit not given here
Outline: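 Competition TR-FRET: compounds at final 15 μM mixed with 200 nM FAM-PCF11_4, 5 nM GST-MAGEA11 and 5 nM Tb-anti-GST in Tris pH 7.5/MgCl2/BSA/DTT buffer, room temperature, 90 min. Emission ratio 520/490 nm (340 nm excitation) expressed as % inhibition relative to positive and negative controls.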

[1] = single point TR-FRET screening of quinoline compounds against MAGE-A11:PCF11, 15 μM
[2] = single point TR-FRET screening at 15 μM against MAGE-A11:PCF11

Sequence of MAGE-A11:PCF11 (P43364 218-429): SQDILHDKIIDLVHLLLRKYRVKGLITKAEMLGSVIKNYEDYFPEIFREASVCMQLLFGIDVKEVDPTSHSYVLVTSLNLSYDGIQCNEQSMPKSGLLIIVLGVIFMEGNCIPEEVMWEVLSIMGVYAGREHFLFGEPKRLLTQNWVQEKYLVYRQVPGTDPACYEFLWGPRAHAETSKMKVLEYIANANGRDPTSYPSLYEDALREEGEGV

Compound: CCCN(CCCNc1ccnc2cc(Cl)ccc12)Cc1ccccc1 [SJ000357431]
- TR-FRET signal [1]: 19.14

Compound: CCCN(CCCNc1ccnc2cc(Cl)ccc12)Cc1ccc(C)s1 [SJ000357433]
- TR-FRET signal [1]: 16.51

Compound: CCCN(CCCNc1ccnc2cc(Cl)ccc12)Cc1ccc(C)o1 [SJ000357437]
- TR-FRET signal [1]: 20.15

Compound: CCCN(CCCNc1ccnc2cc(Cl)ccc12)Cc1sccc1C [SJ000357439]
- TR-FRET signal [1]: 19.73

Compound: Cc1ccsc1CN(CCCNc1ccnc2cc(Cl)ccc12)Cc1ccccc1 [SJ000357440]
- TR-FRET signal [1]: 10.9

Compound: CCCN(CCCNc1ccnc2cc(Cl)ccc12)Cc1ccoc1 [SJ000357442]
- TR-FRET signal [1]: 6.214

Compound: CCCN(CCCNc1ccnc2cc(Cl)ccc12)Cc1ccc[nH]1 [SJ000357445]
- TR-FRET signal [1]: 10.34

Compound: CCCN(CCCNc1ccnc2cc(Cl)ccc12)Cc1cccnc1 [SJ000357446]
- TR-FRET signal [1]: 7.809

Compound: CCCN(CCCNc1ccnc2cc(Cl)ccc12)Cc1ccncc1 [SJ000357449]
- TR-FRET signal [1]: 9.295

Compound: CCCN(CCCNc1ccnc2cc(Cl)ccc12)Cc1nccs1 [SJ000357454]
- TR-FRET signal [1]: 11.96

Compound: CCCN(CCCNc1ccnc2cc(Cl)ccc12)Cc1ccco1 [SJ000357458]
- TR-FRET signal [1]: 3.483

Compound: Clc1ccc2c(NCCCN(Cc3ccccc3)Cc3ccc(Br)s3)ccnc2c1 [SJ000357461]
- TR-FRET signal [1]: 27.5

Compound: COc1ccc(O)c(CN(CCCNc2ccnc3cc(Cl)ccc23)Cc2ccccc2)c1 [SJ000357463]
- TR-FRET signal [1]: 14.17

Compound: COc1cccc(CN(CCCNc2ccnc3cc(Cl)ccc23)Cc2ccccc2)c1O [SJ000357465]
- TR-FRET signal [1]: 13.17

Compound: CC(C)CN(CCCNc1ccnc2cc(Cl)ccc12)Cc1ccccc1 [SJ000357468]
- TR-FRET signal [1]: 18.75

Compound: CC(C)CN(CCCCNc1ccnc2cc(Cl)ccc12)Cc1ccccc1 [SJ000357470]
- TR-FRET signal [2]: 25.47

Compound: Clc1ccc2c(NC3CCN(CC4CC4)CC3)ccnc2c1 [SJ000357481]
- TR-FRET signal [2]: 3.973

Compound: Clc1ccc2c(NCCCN(Cc3ccccc3)CC3CC3)ccnc2c1 [SJ000357483]
- TR-FRET signal [1]: 21.06

Compound: Clc1ccc2c(NCCCCN(Cc3ccccc3)CC3CC3)ccnc2c1 [SJ000357485]
- TR-FRET signal [2]: 18.34

Compound: COc1ccc(F)cc1CN1CCC(Nc2ccnc3cc(Cl)ccc23)CC1 [SJ000357493]
- TR-FRET signal [2]: 6.153

Compound: CCCN(CCCNc1ccnc2cc(Cl)ccc12)Cc1cc(F)ccc1OC [SJ000357494]
- TR-FRET signal [1]: 17.08

Compound: COc1ccc(F)cc1CN(CCCNc1ccnc2cc(Cl)ccc12)Cc1ccccc1 [SJ000357495]
- TR-FRET signal [1]: 6.683

Compound: COc1ccc(F)cc1CN(CCCCNc1ccnc2cc(Cl)ccc12)Cc1ccccc1 [SJ000357496]
- TR-FRET signal [2]: 20.78

Compound: COc1cccc(F)c1CN1CCC(Nc2ccnc3cc(Cl)ccc23)CC1 [SJ000357498]
- TR-FRET signal [2]: 10.5

Compound: CCCN(CCCNc1ccnc2cc(Cl)ccc12)Cc1c(F)cccc1OC [SJ000357499]
- TR-FRET signal [1]: 19.4

Compound: COc1cccc(F)c1CN(CCCNc1ccnc2cc(Cl)ccc12)Cc1ccccc1 [SJ000357500]
- TR-FRET signal [1]: −2.857

Compound: COc1cccc(F)c1CN(CCCCNc1ccnc2cc(Cl)ccc12)Cc1ccccc1 [SJ000357501]
- TR-FRET signal [2]: 5.094

Compound: Oc1c(F)cc(F)cc1CN(CCCNc1ccnc2cc(Cl)ccc12)Cc1ccccc1 [SJ000357504]
- TR-FRET signal [1]: 27.64

Compound: Oc1c(F)cc(F)cc1CN(CCCCNc1ccnc2cc(Cl)ccc12)Cc1ccccc1 [SJ000357506]
- TR-FRET signal [2]: 30.65

Compound: Clc1ccc2c(NC3CCN(Cc4ccc(Br)o4)CC3)ccnc2c1 [SJ000357512]
- TR-FRET signal [2]: −4.381

Compound: Clc1ccc2c(NC3CCN(Cc4ccccc4)CC3)ccnc2c1 [SJ000357524]
- TR-FRET signal [2]: 6.554

Compound: COc1cccc(CN2CCC(Nc3ccnc4cc(Cl)ccc34)CC2)c1O [SJ000357525]
- TR-FRET signal [2]: 9.995

Compound: COc1ccc(O)c(CN2CCC(Nc3ccnc4cc(Cl)ccc34)CC2)c1 [SJ000357527]
- TR-FRET signal [2]: 7.779

Compound: Oc1ccccc1CN1CCC(Nc2ccnc3cc(Cl)ccc23)CC1 [SJ000357529]
- TR-FRET signal [2]: 22.15

Compound: CC(C)(C)CCN(CCCCNc1ccnc2cc(Cl)ccc12)Cc1ccccc1 [SJ000357537]
- TR-FRET signal [2]: 34.54

Compound: CCCCN(CCCCNc1ccnc2cc(Cl)ccc12)Cc1ccccc1 [SJ000357538]
- TR-FRET signal [2]: 27.64

Compound: Clc1ccc2c(NCCCCN(CCOCc3ccccc3)Cc3ccccc3)ccnc2c1 [SJ000357543]
- TR-FRET signal [2]: −15.92

Compound: CCCN(CCCNc1ccnc2cc(Cl)ccc12)CC(C)C [SJ000357568]
- TR-FRET signal [1]: 11.45

Compound: CCCN(CCCNc1ccnc2cc(Cl)ccc12)CCC(C)(C)C [SJ000357570]
- TR-FRET signal [1]: 12.11

Compound: CCCCN(CCC)CCCNc1ccnc2cc(Cl)ccc12 [SJ000357571]
- TR-FRET signal [1]: 12.78

Compound: CCCN(CCCNc1ccnc2cc(Cl)ccc12)CCC(C)c1ccccc1 (stereo not shown) [SJ000357573]
- TR-FRET signal [1]: 24.98

Compound: CCCN(CCCNc1ccnc2cc(Cl)ccc12)CCc1ccccc1 [SJ000357574]
- TR-FRET signal [1]: 4.884

Compound: CCCN(CCCNc1ccnc2cc(Cl)ccc12)CCCSC [SJ000357576]
- TR-FRET signal [1]: 7.824

Compound: CCCN(CCCNc1ccnc2cc(Cl)ccc12)CCOCc1ccccc1 [SJ000357577]
- TR-FRET signal [1]: −13.18

Compound: CC(C)(C)CCN(CCCNc1ccnc2cc(Cl)ccc12)Cc1ccccc1 [SJ000357578]
- TR-FRET signal [1]: 25.69

Compound: CCCCN(CCCNc1ccnc2cc(Cl)ccc12)Cc1ccccc1 [SJ000357579]
- TR-FRET signal [1]: 19.31

Compound: Clc1ccc2c(NCCCN(CCc3ccccc3)Cc3ccccc3)ccnc2c1 [SJ000357580]
- TR-FRET signal [1]: 14.41

Compound: Clc1ccc2c(NCCCN(CCOCc3ccccc3)Cc3ccccc3)ccnc2c1 [SJ000357583]
- TR-FRET signal [1]: 13.24

Compound: CCCN(CCCNc1ccnc2cc(Cl)ccc12)Cc1cccc2c1OCO2 [SJ000357594]
- TR-FRET signal [1]: 18.14

Compound: CCCN(CCCNc1ccnc2cc(Cl)ccc12)Cc1ccccc1OC(F)(F)F [SJ000357595]
- TR-FRET signal [1]: −21.87

Compound: CCCN(CCCNc1ccnc2cc(Cl)ccc12)Cc1cc(F)cc(F)c1O [SJ000357597]
- TR-FRET signal [1]: 15.96

Compound: Clc1ccc2c(NCCCN(Cc3ccccc3)Cc3cccc4c3OCO4)ccnc2c1 [SJ000357598]
- TR-FRET signal [1]: 3.49

Compound: FC(F)(F)Oc1ccccc1CN(CCCNc1ccnc2cc(Cl)ccc12)Cc1ccccc1 [SJ000357599]
- TR-FRET signal [1]: 19.76

Compound: COc1ccc2nc3cc(Cl)ccc3c(NCCCNCc3ccc[nH]3)c2c1 [SJ000361084]
- TR-FRET signal [1]: 0.9854

Compound: COc1ccc2nc3cc(Cl)ccc3c(NCCCNCc3ccc4c(c3)OCO4)c2c1 [SJ000361085]
- TR-FRET signal [2]: −363.3

Compound: COc1ccc2nc3cc(Cl)ccc3c(NCCCNCc3ccccc3)c2c1 [SJ000361086]
- TR-FRET signal [2]: −432.4

Compound: COc1ccc2nc3cc(Cl)ccc3c(NCCCNCC3CC3)c2c1 [SJ000361087]
- TR-FRET signal [2]: −502.4

Compound: COc1ccc2nc3cc(Cl)ccc3c(NCCCNCc3cccs3)c2c1 [SJ000361088]
- TR-FRET signal [2]: −453.5

Compound: COc1ccc2nc3cc(Cl)ccc3c(NCCCNCc3ccc(C)o3)c2c1 [SJ000361089]
- TR-FRET signal [2]: −229

Compound: COc1ccc2nc3cc(Cl)ccc3c(NCCCNCC3CCCCC3)c2c1 [SJ000361090]
- TR-FRET signal [2]: −411.2

Compound: COc1ccc2nc3cc(Cl)ccc3c(NCCCNCc3cc(F)ccc3F)c2c1 [SJ000361091]
- TR-FRET signal [2]: −327.2

Compound: CCC(CC)CNCCCNc1c2ccc(Cl)cc2nc2ccc(OC)cc12 [SJ000361092]
- TR-FRET signal [2]: −427.4

Compound: CCC(C)CNCCCNc1c2ccc(Cl)cc2nc2ccc(OC)cc12 (stereo not shown) [SJ000361093]
- TR-FRET signal [2]: −451.5

Compound: COc1ccc2nc3cc(Cl)ccc3c(NCCCNCc3sccc3C)c2c1 [SJ000361094]
- TR-FRET signal [2]: −321.3

Compound: COc1ccc2nc3cc(Cl)ccc3c(NCCCNCc3ccccc3C(F)(F)F)c2c1 [SJ000361095]
- TR-FRET signal [2]: −169.5

Compound: CCCNCCCNc1c2ccc(Cl)cc2nc2ccc(OC)cc12 [SJ000361096]
- TR-FRET signal [2]: −498.5

Compound: CCCCCCNCCCNc1c2ccc(Cl)cc2nc2ccc(OC)cc12 [SJ000361097]
- TR-FRET signal [2]: −281.7

Compound: COc1ccc2nc3cc(Cl)ccc3c(NCCCNCCC(C)SC)c2c1 (stereo not shown) [SJ000361098]
- TR-FRET signal [2]: −514.5

Compound: COc1ccc2nc3cc(Cl)ccc3c(NCCCNCc3c4ccccc4cc4ccccc34)c2c1 [SJ000361099]
- TR-FRET signal [1]: −3.728

Compound: Clc1ccc2c(NCCCNCC3CC3)ccnc2c1 [SJ000361101]
- TR-FRET signal [1]: 11.47

Compound: Clc1ccc2c(NCCCNCC3CCCCC3)ccnc2c1 [SJ000361102]
- TR-FRET signal [1]: 15.63

Compound: CCC(CC)CNCCCNc1ccnc2cc(Cl)ccc12 [SJ000361103]
- TR-FRET signal [1]: 16.55

Compound: CCC(C)CNCCCNc1ccnc2cc(Cl)ccc12 (stereo not shown) [SJ000361104]
- TR-FRET signal [1]: 9.822

Compound: FC(F)(F)c1ccc2c(NCCCNCc3ccc[nH]3)ccnc2c1 [SJ000361105]
- TR-FRET signal [1]: 41.69

Compound: FC(F)(F)c1ccc2c(NCCCNCC3CC3)ccnc2c1 [SJ000361108]
- TR-FRET signal [1]: 22.81

Compound: Cc1ccc(CNCCCNc2ccnc3cc(C(F)(F)F)ccc23)o1 [SJ000361109]
- TR-FRET signal [1]: 14.45

Compound: FC(F)(F)c1ccc2c(NCCCNCC3CCCCC3)ccnc2c1 [SJ000361110]
- TR-FRET signal [1]: 27.12

Compound: CCC(CC)CNCCCNc1ccnc2cc(C(F)(F)F)ccc12 [SJ000361111]
- TR-FRET signal [1]: 24.33

Compound: CCC(C)CNCCCNc1ccnc2cc(C(F)(F)F)ccc12 (stereo not shown) [SJ000361112]
- TR-FRET signal [1]: 18.47

Compound: FC(F)(F)c1ccc2c(NCCCNCc3ccco3)ccnc2c1 [SJ000361113]
- TR-FRET signal [1]: 18.05

Compound: CCCNCCCNc1ccnc2cc(Cl)ccc12 [SJ000361119]
- TR-FRET signal [1]: 9.785

Compound: CCCCCCNCCCNc1ccnc2cc(Cl)ccc12 [SJ000361120]
- TR-FRET signal [1]: 22.25

Compound: CSC(C)CCNCCCNc1ccnc2cc(Cl)ccc12 (stereo not shown) [SJ000361121]
- TR-FRET signal [1]: 13.5

Compound: CCCNCCCNc1ccnc2cc(C(F)(F)F)ccc12 [SJ000361123]
- TR-FRET signal [1]: 12.82

Compound: CCCCCCNCCCNc1ccnc2cc(C(F)(F)F)ccc12 [SJ000361124]
- TR-FRET signal [1]: 31.61

Source: US20240246941A1, “SUBSTITUTED 4-(3-AMINOPROP-1-YL)AMINOQUINOLINE ANALOGS AS MODULATORS OF MELANOMA-ASSOCIATED ANTIGEN 11 UBIQUITIN LIGASE” (ST. JUDE CHILDREN'S RESEARCH HOSPITAL, INC., priority 2020, published 2024)
